Reference: patent US9388122B2, “Radioactive tyrosine derivative, method for producing same, labeling agent for positron imaging and medical agent for assessing grade of malignancy of tumor respectively composed of radioactive tyrosine derivative, and method for detecting tumor” (priority 2004, dated 2016)
“Also recorded” adds a separate entry of the source.

Columns and labels:
HeLa = assay: Planar measurement in cancer-bearing mice; details: 2.5 MBq tail vein, 60 minutes measurement; for accumulation in the tumor site (planar imaging): PPIS-4800; for accumulation in the normal tissues (planar imaging): compared with tumor site
Experimental: Measurement was performed (1 minute×60 frames) for 60 minutes immediately after the compound administration by use of a planar imaging system (PPIS-4800 manufactured by Hamamatsu Photonics K. K.) and indicated by images each comprising 10 frames integrated.

[1] = test system: HeLa-K (cell strain: 15S3D) and HeLa-B (JCRB9004); assay: Relationship between tumor proliferation rate and degree of accumulation of labeled compound for positron imaging; type: in vivo, nude mice (BALB/cA Jcl-nu)
Excerpt: HeLa-K (cell strain: 15S3D) and HeLa-B (Health Science Research Resources Bank: JCRB9004) were subcutaneously transplanted at 5×10^6 cells/mouse and 2×10^7 cells/mouse, respectively, to the thighs of female BALB/cA Jcl-nu nude mice (HeLa-K: 7-week-old mice, HeLa-B: 5-week-old mice). The HeLa-K- and HeLa-B-transplanted mice, when becoming 9 week old after 2 weeks and 4 weeks of the transplantation, respectively, were used in the experiment. To examine the relationship between the accumulation of each labeled compound in the cancer-bearing mice and the proliferation rate of the tumor tissue, tumor size was daily measured. Doubling time (DT) was calculated according to the calculation formula: DT=t×log2 (V1/V0) proposed by Schwartz, wherein t denotes the number of days required for the tumor volume to reach V1 (mm^3) from V0 (mm^3), and the volume (mm^3) was calculated according to ½×length (mm)×width^2 (mm^2) from the major axis of the tumor. FIG. 7 is a graph showing the relationship between the number of days elapsed after HeLa transplantation and tumor volumes. […] The doubling times of HeLa-K and HeLa-B calculated from FIG. 7 were 4.4 days and 11.0 days, respectively.
The HeLa-K- and HeLa-B-transplanted nude mice were administered through the tail veins with [^18F]FDG, [^11C]choline, [^18F]FLT, L- and D-[^11C]Met, and L- and D-[^11C]MT at 1 MBq ([^18F]FDG and [^18F]FLT) or 10 MBq ([^11C]choline, L- and D-[^11C]Met, and L- and D-[^11C]MT). […] The radioactivities of the blood and tumor were measured with an automatic gamma counter, their weights were measured, and SUV was determined.
HeLa-K- and HeLa-B-transplanted nude mice were administered through the tail veins with L- and D-[^11C]ET, L- and D-[^18F]FMT, L-and D-[^18F]FET, and L- and D-[^18F]FPT at 10 MBq (L- and D-[^11C]ET) or 1 MBq (the others). […] The radioactivities of the blood and tumor were measured with an automatic gamma counter, their weights were measured, and SUV was determined.

[2] = test system: Human cervical cancer HeLa cells (cell strain: 15S3D); assay: Measurement of organ distribution in cancer-bearing mice; details: 1 hour after administration; for SUV (organ: tumor)/SUV (blood), D-form compared with L-form / accumulation in the tumor, SUV (organ)/SUV (blood) / accumulation in the normal tissues, SUV (organ)/SUV (blood): HeLa-transplanted nude mice, tail vein; for specificity of accumulation to tumor: from SUV (organ)/SUV (blood) of the organs; for accumulation in the tumor, SUV (organ)/SUV (blood): 10 MBq (11C) or 1 MBq (18F), gamma counter; for ratio of accumulation to the pancreas to accumulation to the tumor indicated by SUV (organ)/SUV (blood): D-form compared with L-form
Experimental: Human cervical cancer HeLa cells (cell strain: 15S3D) were subcutaneously transplanted at 5×10^6 cells/mouse to the thighs of 7-week-old nude mice (BALB/cA Jcl-nu, Clea Japan, Inc). […] After 1 hour of the administration, the mice were decapitated to collect each organ (blood, heart, lung, liver, kidney, spleen, muscle, bone, small intestine, gastrointestinal tract, pancreas, brain, and tumor). The radioactivity of each organ was measured with an automatic gamma counter, and the weight of each organ was measured. SUV (standardized uptake value) that served as an index of the accumulating amounts of the administered compounds was determined. Furthermore, to correct the accumulating amounts, SUV (organ)/SUV (blood) was determined by dividing the SUV of each organ by the SUV of blood.

cancer cells = details: cited from earlier work
tumor tissues = details: in vivo; cited from earlier work
[3] = HeLa-K versus HeLa-B tumors, SUV (organ)/SUV (blood), 1 hour after administration

Molecule: N[C@H](Cc1ccc(OC[18F])cc1)C(=O)O [D-[^18F]FMT, O—[^18F]fluoromethyl-D-tyrosine]
- tumor-specific accumulation, D-form compared with L-form (planar imaging) (HeLa): accumulate in a manner specific to the tumor as compared with the L-form
- accumulation in the tumor site (planar imaging) (HeLa): observed in the tumor site
- difference in the degree of accumulation depending on the difference in proliferation rate [1, 3]: remarkably large as compared with L-[^18F]FMT
- SUV (organ: tumor)/SUV (blood), D-form compared with L-form [2]: higher value of SUV (organ: tumor)/SUV (blood) than the L-form
- specificity of accumulation to tumor [2]: particularly high specificity to the tumor

Molecule: [11CH3]Oc1ccc(C[C@H](N)C(=O)O)cc1 [L-[^11C]MT, O—[^11C]methyl-L-tyrosine, reference compound]
- accumulation in the tumor site (planar imaging) (HeLa): observed in the tumor site
- accumulation in the tumor, SUV (organ)/SUV (blood) [2]: observed in the tumor
- accumulation in the normal tissues, SUV (organ)/SUV (blood) [2]: low in the normal tissues except for the pancreas
- specificity of accumulation to tumor [2]: specific to the tumor

Molecule: N[C@H](Cc1ccc(OCC[18F])cc1)C(=O)O [D-[^18F]FET, O—[^18F]fluoroethyl-D-tyrosine]
- uptake to cancer cells (cancer cells): low uptake to cancer cells
- accumulation in tumor tissues (tumor tissues): does not accumulate in tumor tissues
- ratio of accumulation to the pancreas to accumulation to the tumor indicated by SUV (organ)/SUV (blood) [2]: lower in the D-form than in the L-form
- accumulation in the tumor, SUV (organ)/SUV (blood) [2]: observed in the tumor
- SUV (organ: tumor)/SUV (blood), D-form compared with L-form [2]: higher value of SUV (organ: tumor)/SUV (blood) than the L-form
- accumulation in the normal tissues, SUV (organ)/SUV (blood) [2]: low in the normal tissues except for the pancreas
- specificity of accumulation to tumor [2]: specific to the tumor; also recorded: particularly high specificity to the tumor

Molecule: [11CH3]Oc1ccc(C[C@@H](N)C(=O)O)cc1 [D-[^11C]MT, O—[^11C]methyl-D-tyrosine]
- tumor-specific accumulation, D-form compared with L-form (planar imaging) (HeLa): accumulate in a manner specific to the tumor as compared with the L-form
- accumulation in the tumor site (planar imaging) (HeLa): observed in the tumor site
- accumulation in tumor, SUV (organ)/SUV (blood), HeLa-K versus HeLa-B ([1]; HeLa-K doubling time 4.4 days, HeLa-B 11.0 days, tail vein, 1 hour after administration): accumulated more in HeLa-K exhibiting faster proliferation
- difference in the degree of accumulation depending on the difference in proliferation rate [1, 3]: remarkably large
- ratio of accumulation to the pancreas to accumulation to the tumor indicated by SUV (organ)/SUV (blood) [2]: lower in the D-form than in the L-form
- accumulation in the tumor, SUV (organ)/SUV (blood) [2]: observed in the tumor
- SUV (organ: tumor)/SUV (blood), D-form compared with L-form [2]: higher value of SUV (organ: tumor)/SUV (blood) than the L-form
- accumulation in the normal tissues, SUV (organ)/SUV (blood) [2]: low in the normal tissues except for the pancreas
- specificity of accumulation to tumor [2]: specific to the tumor

Molecule: N[C@@H](Cc1ccc(OCC[18F])cc1)C(=O)O [L-[^18F]FET, O—[^18F]Fluoroethyl-L-tyrosine, reference compound]
- accumulation in the tumor, SUV (organ)/SUV (blood) [2]: observed in the tumor
- accumulation in the normal tissues, SUV (organ)/SUV (blood) [2]: low in the normal tissues except for the pancreas
- specificity of accumulation to tumor [2]: specific to the tumor

Molecule: C[11CH2]Oc1ccc(C[C@H](N)C(=O)O)cc1 [L-[^11C]ET, O—[^11C]Ethyl-L-tyrosine, reference compound]
- accumulation in the tumor, SUV (organ)/SUV (blood) [2]: observed in the tumor
- accumulation in the normal tissues, SUV (organ)/SUV (blood) [2]: low in the normal tissues except for the pancreas
- specificity of accumulation to tumor [2]: specific to the tumor

Molecule: C[11CH2]Oc1ccc(C[C@@H](N)C(=O)O)cc1 [D-[^11C]ET, O—[^11C]ethyl-D-tyrosine]
- ratio of accumulation to the pancreas to accumulation to the tumor indicated by SUV (organ)/SUV (blood) [2]: lower in the D-form than in the L-form
- accumulation in the tumor, SUV (organ)/SUV (blood) [2]: observed in the tumor
- accumulation in the normal tissues, SUV (organ)/SUV (blood) [2]: low in the normal tissues except for the pancreas
- specificity of accumulation to tumor [2]: specific to the tumor

Molecule: [^18F]-2-fluoro-2-deoxy-D-glucose [[^18F]FDG, reference compound]
- difference in the degree of accumulation depending on the difference in proliferation rate ([1]; mouse, in vivo): not detected

Molecule: N[C@@H](Cc1ccc(OCCC[18F])cc1)C(=O)O [L-[^18F]FPT, O—[^18F]Fluoropropyl-L-tyrosine, reference compound]
- accumulation in the tumor, SUV (organ)/SUV (blood) [2]: observed in the tumor
- accumulation in the normal tissues, SUV (organ)/SUV (blood) [2]: low in the normal tissues except for the pancreas and bone
- specificity of accumulation to tumor [2]: specific to the tumor

Molecule: N[C@H](Cc1ccc(OCCC[18F])cc1)C(=O)O [D-[^18F]FPT, O—[^18F]fluoropropyl-D-tyrosine]
- ratio of accumulation to the pancreas to accumulation to the tumor indicated by SUV (organ)/SUV (blood) [2]: lower in the D-form than in the L-form
- accumulation in the tumor, SUV (organ)/SUV (blood) [2]: observed in the tumor
- accumulation in the normal tissues, SUV (organ)/SUV (blood) [2]: low in the normal tissues except for the pancreas and bone
- specificity of accumulation to tumor [2]: specific to the tumor

Molecule: [11CH3]SCC[C@H](N)C(=O)O [L-[^11C]Met, L-[^11C]methionine, reference compound]
- accumulation in the tumor site (planar imaging) (HeLa): observed in the tumor site
- accumulation in the normal tissues (planar imaging) (HeLa): significantly stronger in the normal tissues
- difference in the degree of accumulation depending on the difference in proliferation rate ([1]; mouse, in vivo): not detected
- accumulation in the tumor, SUV (organ)/SUV (blood) [2]: observed in the tumor
- accumulation in the normal tissues, SUV (organ)/SUV (blood) [2]: also high in the normal tissues
- specificity of accumulation to tumor [2]: low specificity to tumor

Molecule: N[C@@H](Cc1ccc(OC[18F])cc1)C(=O)O [L-[^18F]FMT, O—[^18F]fluoromethyl-L-tyrosine]
- accumulation in the tumor site (planar imaging) (HeLa): observed in the tumor site

Molecule: [11CH3]SCC[C@@H](N)C(=O)O [D-[^11C]Met, reference compound]
- accumulation in the tumor site (planar imaging) (HeLa): observed in the tumor site
- accumulation in the normal tissues (planar imaging) (HeLa): significantly stronger in the normal tissues
- accumulation in the tumor, SUV (organ)/SUV (blood) [2]: observed in the tumor
- accumulation in the normal tissues, SUV (organ)/SUV (blood) [2]: also high in the normal tissues
- specificity of accumulation to tumor [2]: low specificity to tumor
